Data from patent publication US8436020B2, “Processes for the preparation of piperidinic derivatives and pharmaceutic compositions containing the same” (priority 2004, dated 2013).
pIC50: −log10 of the molar value. Values joined by “and” are separate entries in the source; they are usually repeats but may differ in a detail not shown here. Equal values may be shown once. “Also recorded” adds a separate entry of the source. Read-outs that look alike come from different tables or passages of the source.

Key:
[1] = system: amnesia induced by scopolamine; test: Amnesia induced by scopolamine in the inhibitory avoidance assay; format: in vivo, Swiss mice; conditions: mice
Description: A total of 120 adult male (25-30 g) Swiss mice were used. The animals were submitted to the inhibitory avoidance assay, which consists of a box with a base made of a grid connected to an electrostimulator (0.6 mA/3 s), and containing a wood platform (3 cm^3). Mice were put over this platform; being computed the latency (in seconds) until the animals put the four paws over the grid. In the first day of the test (“training”), animals would receive an adverse electrical stimulus (0.6 mA/3 s) whenever they stepped down to the grid (step down latency—SDL). At this stage, animals that would stay more than 15 seconds over the platform were discarded. Twenty-four hours later, the animals were re-introduced over the platform and the SDL computed (“retention”).

[2] = system: amnesia induced by scopolamine; test: Amnesia induced by scopolamine in the Morris water maze; format: in vivo, Wistar rats; conditions: rats, scopolamine 1 mg/kg, 4 days test
Protocol: A total of 39 Wistar rats (females—±200 g) were used.
After 30 minutes of intraperitoneal second administration (saline or scopolamine), the animals were challenged to localize an underwater platform in a round recipient containing opaque water (water maze) and the escape latency (in seconds) was computed. […] Tests were conducted twice a day, during 4 consecutive days.
When treated with scopolamine 30 minutes before the challenge, the animals could not learn the task and the escape latency approaches maximum values (150 s) in the fourth day of the test.

[3] = Cholinergic side effects (diarrhea) 30 minutes after administration, rats; format: in vivo
Description: Results from this assay can be seen in FIGS. 8-9.

[4] = format: in vivo, mice
[5] = Water solubility of the chlorhydrate derivatives
[6] = biological target: cholinesterase in homogenized rat brain (Rattus norvegicus, UniProt P37136); conditions: for pIC50: rat brain homogenate
Sequence of cholinesterase in homogenized rat brain (P37136 32-614): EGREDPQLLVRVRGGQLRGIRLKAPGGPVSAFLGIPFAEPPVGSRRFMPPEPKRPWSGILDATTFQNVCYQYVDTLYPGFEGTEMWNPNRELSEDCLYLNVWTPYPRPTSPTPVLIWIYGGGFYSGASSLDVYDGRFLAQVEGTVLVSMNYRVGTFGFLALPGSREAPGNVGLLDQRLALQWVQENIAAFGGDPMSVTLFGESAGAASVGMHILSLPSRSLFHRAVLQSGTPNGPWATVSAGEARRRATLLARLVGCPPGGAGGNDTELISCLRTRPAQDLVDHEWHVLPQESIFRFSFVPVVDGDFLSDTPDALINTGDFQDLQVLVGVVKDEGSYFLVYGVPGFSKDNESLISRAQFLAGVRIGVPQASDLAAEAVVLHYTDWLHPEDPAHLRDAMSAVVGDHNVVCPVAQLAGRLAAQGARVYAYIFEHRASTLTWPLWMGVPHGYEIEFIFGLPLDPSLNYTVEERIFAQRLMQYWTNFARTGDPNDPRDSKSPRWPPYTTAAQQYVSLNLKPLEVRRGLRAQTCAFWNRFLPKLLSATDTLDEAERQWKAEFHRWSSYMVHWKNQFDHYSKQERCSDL
Protocol: In all experiments, cholinesterase-independent substrate hydrolysis (non specific) was determined by the inclusion of an experimental group treated with THA 20 μM. Appropriate tissues and reagents (em branco) were also included. Reaction velocities were determined in 3 or 4 repetitions by condition; mean values were calculated and expressed as percentages of relative activity in respect to control (solvent), after subtraction of the non-specific hydrolysis rate. The substances were tested in at least five different concentrations. From the resulting inhibition curve, values in the ranges […] 20%-80% were considered, with concentration limited to 500 μM. The IC50, based in a single-site model, was determined via linear regression.

AChE [7] = biological target: T1, AChE (Homo sapiens, UniProt P22303); conditions: read-out: IC50, AChE; cited from earlier work
T1 sequence (P22303 32-614): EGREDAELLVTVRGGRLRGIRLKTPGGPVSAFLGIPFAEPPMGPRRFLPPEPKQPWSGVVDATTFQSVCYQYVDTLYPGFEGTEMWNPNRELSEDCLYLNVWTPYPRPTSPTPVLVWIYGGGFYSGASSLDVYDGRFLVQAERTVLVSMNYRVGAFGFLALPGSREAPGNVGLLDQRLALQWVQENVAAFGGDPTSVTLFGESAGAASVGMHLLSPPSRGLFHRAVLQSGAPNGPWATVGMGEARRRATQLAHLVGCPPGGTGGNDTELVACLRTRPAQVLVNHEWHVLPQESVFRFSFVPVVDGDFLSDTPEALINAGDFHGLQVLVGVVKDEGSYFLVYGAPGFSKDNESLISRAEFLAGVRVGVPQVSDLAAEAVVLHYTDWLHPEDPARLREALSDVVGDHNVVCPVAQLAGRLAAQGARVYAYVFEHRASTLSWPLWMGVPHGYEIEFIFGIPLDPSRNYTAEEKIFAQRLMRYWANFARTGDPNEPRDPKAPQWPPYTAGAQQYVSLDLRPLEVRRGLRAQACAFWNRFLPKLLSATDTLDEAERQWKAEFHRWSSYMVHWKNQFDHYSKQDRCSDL

BuChE = BuChE (Homo sapiens, UniProt P06276); conditions: arisugacines and cyclopenine: no BuChE inhibition at this multiple; cyclophostin: BuChE inhibited at this multiple; cited from earlier work
Sequence of BuChE (P06276 29-602): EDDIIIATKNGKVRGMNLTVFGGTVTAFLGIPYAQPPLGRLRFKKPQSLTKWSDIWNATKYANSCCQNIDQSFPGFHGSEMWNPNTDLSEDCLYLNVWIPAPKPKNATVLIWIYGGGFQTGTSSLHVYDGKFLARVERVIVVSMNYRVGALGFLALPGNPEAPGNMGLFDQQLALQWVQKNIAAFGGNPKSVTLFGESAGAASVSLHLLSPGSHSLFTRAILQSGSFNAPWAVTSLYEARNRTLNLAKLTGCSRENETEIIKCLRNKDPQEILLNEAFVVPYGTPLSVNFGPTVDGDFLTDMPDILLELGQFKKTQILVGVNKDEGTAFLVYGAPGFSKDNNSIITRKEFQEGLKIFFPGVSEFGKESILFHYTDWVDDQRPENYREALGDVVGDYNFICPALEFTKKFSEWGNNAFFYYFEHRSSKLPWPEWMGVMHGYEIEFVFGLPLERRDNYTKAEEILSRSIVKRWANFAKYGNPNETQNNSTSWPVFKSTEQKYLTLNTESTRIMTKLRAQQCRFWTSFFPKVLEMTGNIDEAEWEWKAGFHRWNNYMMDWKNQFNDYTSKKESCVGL

AChE [8] = biological target: T1, AChE; conditions: cited from earlier work; for pIC50: read-out: IC50 AChE, tacrine as positive control
[9] = biological target: butyrylcholinesterase (BuChE) (Homo sapiens, UniProt P06276); conditions: read-out: IC50 BuChE; cited from earlier work
Sequence of butyrylcholinesterase (BuChE) (P06276 29-602): as above

AChE [10] = biological target: T1, AChE; conditions: cited from earlier work
AChE [11] = biological target: T1, AChE; conditions: read-out: IC50, AChE activity; cited from earlier work
AChE [12] = biological target: T1, AChE; conditions: read-out: IC50, anticholinesterasic activity; cited from earlier work
[13] = read-out: Experimental IC50, cerebral cholinesterase inhibition, single independent experiment (one animal), acetylthiocholine 1 mM
[14] = read-out: Mean IC50, cerebral cholinesterase inhibition, mean of N independent experiments

In the case of CC(=O)CCCCCCCCCCCC[C@H]1CC[C@@H](OC(C)=O)[C@@H](C)N1.Cl [LASSBio-767, 2-(R)-methyl-3-(R)—O-acetyl-6-(S)-(tetradecyl-13′-one)-piperidine chlorhydrate], the “Reversion of amnesia induced by scopolamine, step down latency” value (from here on “Reversion … step down latency”) ([1]; 1 and 10 mg/kg, scopolamine 1 mg/kg) was “do not differ from the ones treated only with scopolamine; also recorded: did not present any effect on the amnesia induced by scopolamine”, the “Reversion of amnesia induced by scopolamine, escape latency in water maze” value (“Reversion of amnesia induced … in water maze” below) ([2]; 1 mg/kg) was “superior effect in relation to tacrine in the reversion of the induced amnesia by scopolamine” and the “Reversion of amnesia induced … in water maze” value ([2]; 10 mg/kg) was “also observed”. For the same molecule, the Occurrence of diarrhea [3] was “Only animals treated with tacrine presented diarrhea”, the “Cholinergic side effects and motor activity” value ([4]; 10 mg/kg) was “no cholinergic side effects and no interference in the motor activity” and the Solubility in water [5] was “water-soluble”. The “AChE inhibitory capacity ex vivo” value [6] was “remarkable anticholinesterasic activity”, the pIC50 [6, 13] was 5.32 and 5.35 and the pIC50 [6, 14] was 5.33.

In the case of CC(=O)CCCCCCCCCCCC[C@H]1CC[C@@H](O)[C@@H](C)N1.Cl [LASSBio-768, Espectaline Chlorhydrate], the Solubility in water [5] was “water-soluble”, the “AChE inhibitory capacity ex vivo” value [6] was “remarkable anticholinesterasic activity” and the pIC50 [6, 13] was 3.71 and 3.56. It also gave a pIC50 [6, 14] of 3.63.

For CC(=O)O[C@@H]1CC[C@H](CCCCCCCCCCCCC(C)O)N[C@@H]1C (stereo partly drawn) [LASSBio-783, (2R,3R,6S)-3-acetoxy-6-(13-hydroxy-tetradecyl-2-methyl)-piperidine chlorhydrate], the pIC50 [6, 13] was 3.48 and 3.15 and 3.62 and the pIC50 [6, 14] was 3.37.

In the case of CC(=O)CCCCCCCCCCCC[C@H]1CC[C@@H](OC(=O)OC(C)(C)C)[C@@H](C)N1.Cl [LASSBio-822, 2-(R)-methyl-3-(R)—O-ter-butoxycarbonyl-6-(S)-(tetradecyl-13′-one)-piperidine chlorhydrate], the “Reversion … step down latency” value ([1]; 1 and 3 mg/kg, scopolamine 1 mg/kg) was “significant partial reversion of the amnesia induced by scopolamine; also recorded: capable of a significant reversion of the amnesia induced by scopolamine”, the “Reversion of amnesia induced … in water maze” value ([2]; 1 mg/kg) was “not capable of antagonize the amnesia induced by scopolamine” and the Solubility in water [5] was “water-soluble”. For the same molecule, the “AChE inhibitory capacity ex vivo” value [6] was “remarkable anticholinesterasic activity”, the pIC50 [6, 13] was 5.04 and 4.79 and 4.70 and the pIC50 [6, 14] was 4.82.

With Nc1c2c(nc3ccccc13)CCCC2 [Tacrine, tacrine, reference compound] the “Reversion … step down latency” value ([1]; 5.6 mg/kg) was “complete reversion of the amnesia induced by scopolamine; also recorded: totally reversed the effect of scopolamine”, the “Reversion of amnesia induced … in water maze” value ([2]; 1 mg/kg) was “antagonize the induced amnesia by scopolamine, a significant effect in the fourth day of the study” and the Animals with diarrhea ([3]; 1 mg/kg) was 100%. The “Mice with diarrhea and urination” value ([4]; 10 mg/kg I.P., mice) was 70%, the “Other side effects observed” value ([4]; 10 mg/kg I.P., mice) was “hypothermia and diminished motor activity” and the “Cholinergic side effect parameters” value ([4]; concentrations superior to 30 mg/kg, mice) was “all checked parameters are altered”.

In the case of CN1C(=O)c2ccccc2NC(=O)[C@]12O[C@@H]2c1ccccc1 [cyclopenine], the pIC50 (AChE [7]) is given as 5.69 and the “Concentration tested on BuChE as a multiple of the AChE IC50 (selectivity)” value (BuChE) is given as > 2,000 times.

In the case of CO[P@]1(=O)OC[C@H]2COC(=O)C2=C(C)O1 [cyclophostin], the pIC50 (AChE [7]) is given as 8.89 and the “Concentration tested on BuChE as a multiple of the AChE IC50 (selectivity)” value (BuChE) is given as 35 times.

In the case of CC[C@H](C)[C@H]1NC(=O)c2c1n(C)c1ccccc1c2=O [quinolactacin A1], the pIC50 (AChE [8]) is given as 3.55.

In the case of CC[C@H](C)[C@@H]1NC(=O)c2c1n(C)c1ccccc1c2=O [quinolactacin A2], the “Inhibitory AChE activity relative to diastereoisomer A1” value (AChE [8]) is listed as 14 times, the pIC50 (AChE [8]) is listed as 4.70 and the pIC50 [9] is listed as 3.19.

In the case of COc1cc(-c2cc3c(c(=O)o2)C[C@]2(O)[C@@]4(C)C(=O)C=CC(C)(C)[C@]4(O)CC[C@@]2(C)O3)cc(OC)c1OC [territrem B], the pIC50 (AChE [7]) is listed as 8.12 and the “Potency relative to neostigmine in AChE inhibition” value (AChE [10]) is listed as “approximately 20 times”.

In the case of COc1cc(-c2cc3c(c(=O)o2)C[C@]2(O)[C@@]4(C)C(=O)C=CC(C)(C)[C@]4(O)CC[C@@]2(C)O3)cc(OC)c1O [territrem C], the pIC50 (AChE [7]) is given as 8.17.

In the case of C/C(=C\CNc1ncnc2nc[nH]c12)CO [zeatine], the pIC50 (AChE [11]) is listed as 3.96.

In the case of C=C1CC[C@H]2C(C)(C)[C@@H](O)CC[C@]2(C)[C@H]1CC[C@H]1C(=C)CC[C@H]2C(C)(C)[C@@H](O)CC[C@]12C [α-onocerine, α-onocerin], the pIC50 (AChE [12]) is given as 5.28.
